Laboratory results reported in patent US10377770B2 (Novartis AG, priority 2015, dated 2019).
pIC50: −log10 of the molar value.

target: C-Raf FL (full length CRAF with Y340E and Y341E activating mutations, co-expressed with h14-3-3 zeta) (Homo sapiens (Human), UniProt P04049, Y340E/Y341E); assay: In vitro Raf activity determination, AlphaScreen p-MEK readout, c-Raf (C-Raf FL); assay type: biochemical; settings: c-Raf approximately 4 nM, ATP 1 μM, pre-incubation 60 minutes, reaction 1 hour
In short: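 Phosphorylation of kinase-dead biotinylated MEK1 (~10 nM) by C-Raf FL (~4 nM) read by AlphaScreen luminescence with anti-phospho-MEK1/2 after EDTA stop. ATP was 1 μM, with a 1 h reaction at room temperature. Compounds were pre-incubated with enzyme and substrate for 60 min in Tris/MgCl2 buffer, pH 7.5.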

| Compound | pIC50 |
| --- | --- |
| Cc1ncc(NC(=O)c2cccc(C(C)(F)F)c2)cc1-c1ccc2c(c1)N1CCOC[C@@H]1[C@@](F)(CO)C2 [Example 368, 3-(1,1-difluoroethyl)-N-(5-((4aR,5R)-5-fluoro-5-(hydroxymethyl)-1,2,4,4a,5,6-hexahydro-[1,4]oxazino[4,3-a]quinolin-9-yl)-6-methylpyridin-3-yl)benzamide] | 10.00 |
| CCN1C[C@@H]2COCC[C@H]2c2cc(-c3cc(NC(=O)c4ccnc(C(C)(F)F)c4)ccc3C)cnc21 [Example 292, 2-(1,1-difluoroethyl)-N-(3-((4aR, 10bR)-6-ethyl-2,4,4a,5,6,10b-hexahydro-1H-pyrano[3,4-c][1,8]naphthyridin-9-yl)-4-methylphenyl) isonicotinamide] | 10.00 |
| Cc1ccc(NC(=O)c2ccnc(C(F)(F)F)c2F)cc1-c1ccc2c(c1)N1CCOC[C@H]1[C@](F)(CO)C2 [Example 385, 3-fluoro-N-(3-((4aS,5S)-5-fluoro-5-(hydroxymethyl)-1,2,4,4a,5,6-hexahydro-[1,4]oxazino[4,3-a]quinolin-9-yl)-4-methylphenyl)-2-(trifluoromethyl)isonicotinamide] | 9.22 |
| CCN1C(=O)[C@H]2COCC[C@@H]2c2cc(-c3cc(NC(=O)c4cccc(C(F)(F)F)c4F)cnc3C)cnc21 [Example 255, N-(5-((4aR, 10bS)-6-ethyl-5-oxo-2,4,4a,5,6,10b-hexahydro-1H-pyrano[3,4-c][1,8]naphthyridin-9-yl)-6-methylpyridin-3-yl)-2-fluoro-3-(trifluoromethyl) benzamide] | 9.10 |
| Cc1ccc(NC(=O)c2ccnc(C(F)(F)F)c2)cc1-c1cnc2c(c1)N1CCOC[C@H]1CC(=O)N2CC(C)(C)O [Example 288, (R)-N-(3-(7-(2-hydroxy-2-methylpropyl)-6-oxo-2,4,4a,5,6,7-hexahydro-1H-[1,4]oxazino[4,3-d]pyrido[2,3-b][1,4]diazepin-10-yl)-4-methylphenyl)-2-(trifluoromethyl) isonicotinamide] | 9.05 |
| Cc1ccc(NC(=O)c2ccnc(C(C)(F)F)c2)cc1-c1cnc2c(c1)N1CCOCC1C1(COC1)C2 (racemic) [Example 152, rac-2-(1,1-difluoroethyl)-N-(4-methyl-3-(2,4,4a,6-tetrahydro-1H-spiro[[1,4]oxazino[4,3-a][1,5]naphthyridine-5,3′-oxetan]-9-yl)phenyl)isonicotinamide] | 10.96 |
| Cc1ccc(NC(=O)c2cc(C(F)(F)F)ccn2)cc1-c1cnc2c(c1)N1CCOCC1C(CO)(CO)C2 (racemic) [Example 159, rac-N-(3-(5,5-bis(hydroxymethyl)-1,2,4,4a,5,6-hexahydro-[1,4]oxazino[4,3-a][1,5]naphthyridin-9-yl)-4-methylphenyl)-4-(trifluoromethyl)picolinamide] | 11.17 |
| Cc1ncc(NC(=O)c2cccc(C(F)(F)F)c2)cc1-c1cnc2c(c1)N1CCOC[C@H]1[C@@H](CO)C2 [Example 490, N-(5-((4aR,5S)-5-(hydroxymethyl)-1,2,4,4a,5,6-hexahydro-[1,4]oxazino[4,3-a][1,5]naphthyridin-9-yl)-6-methylpyridin-3-yl)-3 - (trifluoro-methyl)benzamide] | 9.30 |
| Cc1ncc(NC(=O)c2ccnc(C(F)(F)F)c2)cc1-c1ccc2c(c1)N1CCOC[C@H]1[C@](F)(CF)C2 [Example 471, N-(5-((4aS,5S)-5-fluoro-5-(fluoromethyl)-1,2,4,4a,5,6-hexahydro-[1,4]oxazino[4,3-a]quinolin-9-yl)-6-methylpyridin-3-yl)-2-(trifluoromethyl)iso-nictonamide] | 8.92 |
| Cc1ncc(NC(=O)c2ccnc(C(C)(F)F)c2)cc1-c1ccc2c(c1)N1CCOC[C@H]1[C@](C)(C#N)C2 (racemic) [Example 87, (rac)-N-(5-(5-cyano-5-methyl-1,2,4,4a,5,6-hexahydro-[1,4]oxazino[4,3-a]quinolin-9-yl)-6-methylpyridin-3-yl)-2-(1,1-difluoroethyl)isonicotinamide] | 10.66 |
| Cc1ncc(NC(=O)c2cccc(C(F)(F)F)c2)cc1-c1ccc2c(c1)N1CCOC[C@H]1[C@](F)(CN)C2 [Example 526, N-(5-((4aS,5R)-5-(aminomethyl)-5-fluoro-1,2,4,4a,5,6-hexahydro-[1,4]oxazino[4,3-a]quinolin-9-yl)-6-methylpyridin-3-yl)-3-(trifluoromethyl)benzamide] | 8.59 |
| Cc1ccc(NC(=O)c2ccnc(C(C)(C)F)c2)cc1-c1cc2n(c(=O)c1)CCC1CCOCCN21 (stereo in doubt) [Example 418, (S)-2-(2-fluoropropan-2-yl)-N-(4-methyl-3-(9-oxo-1,2,5,5a,6,7-hexahydro-4H,9H-pyrido[2′,1′:2,3]pyrimido[1,6-d][1,4]oxazepin-11-yl)phenyl)isonicotinamide] | 8.68 |
| Cc1ccc(NC(=O)c2ccnc(C(C)(F)F)c2)cc1-c1ccc2c(c1)N1CCOC[C@H]1[C@](F)(CO)C2 [Example 80, 2-(1,1-difluoroethyl)-N-(3-((4aS,5S)-5-fluoro-5-(hydroxymethyl)-1,2,4,4a,5,6-hexahydro-[1,4]oxazino[4,3-a]quinolin-9-yl)-4-methylphenyl)isonicotinamide] | 9.38 |
| Cc1ncc(NC(=O)c2ccnc(C(C)(C)F)c2)cc1-c1ccc2c(c1)N1CCOCC[C@H]1C[C@@H]2O [Example 445, 2-(2-fluoropropan-2-yl)-N-(5-((5aS,7S)-7-hydroxy-1,2,5,5a,6,7-hexahydro-4H-[1,4]oxazepino [4,5-a]quinolin-10-yl)-6-methylpyridin-3-yl)isonicotinamide] | 9.15 |
| Cc1ccc(NC(=O)c2ccnc(C(C)(C)F)c2)cc1-c1cc2c(cc1F)C[C@@](F)(CO)[C@@H]1COCCN21 [Example 483, N-(3-((4aS,5S)-5,8-difluoro-5-(hydroxymethyl)-1,2,4,4a,5,6-hexahydro-[1,4]oxazino[4,3-a]quinolin-9-yl)-4-methylphenyl)-2-(2-fluoropropan-2-yl)isonicotinamide] | 9.00 |
| CCN1C(=O)[C@@H]2COCC[C@H]2c2cc(-c3cc(NC(=O)c4ccnc(C(F)(F)F)c4)ccc3C)cnc21 [Example 311, N-(3-((4aS, 10bR)-6-ethyl-5-oxo-1,4,4a,5,6,10b-hexahydro-2H-pyrano[3,4 - c][1,8]naphthyridin-9-yl)-4-methylphenyl)-2-(trifluoromethyl) isonicotinamide] | 10.00 |
| Cc1ccc(NC(=O)c2cnnc(C(F)(F)F)c2)cc1-c1cc(F)c2c(c1)N1CCOC[C@H]1[C@](F)(CO)C2 [Example 423, N-(3-((4aS,5S)-5,7-difluoro-5-(hydroxymethyl)-1,2,4,4a,5,6-hexahydro-[1,4]oxazino[4,3-a]quinolin-9-yl)-4-methylphenyl)-6-(trifluoromethyl)pyridazine-4-carboxamide] | 9.15 |
| Cc1ccc(NC(=O)c2ccnc(C(F)(F)F)c2)cc1-c1ccc2c(c1)N1CCOC[C@@H]1C[C@@H]2O [Example 5, N-(3-((4aS,6S)-6-hydroxy-1,2,4,4a,5,6-hexahydro-[1,4]oxazino[4,3-a]quinolin-9-yl)-4-methylphenyl)-2-(trifluoromethyl)isonicotinamide] | 10.44 |
| N-(3-(8-(2- hydroxyethyl)-7- oxo- 1,2,4,5,5a,6,7,8- octahydropyrido[3′, 2′:2,3][1,4]diazepino [1,7- d][1,4]oxazepin- 11-yl)-4- methylphenyl)-2- (trifluoromethyl) isonicotinamide [Example 320] | 9.10 |
| CCOC(=O)c1c2n(c3cc(-c4cc(NC(=O)c5ccnc(C(F)(F)F)c5)ccc4C)ccc3c1=O)CCOC2 [Example 1, ethyl 9-(2-methyl-5-(2-(trifluoromethyl)isonicotinamido)phenyl)-6-oxo-1,2,4,6-tetrahydro-[1,4]oxazino[4,3-a]quinoline-5-carboxylate] | 10.35 |
| Cc1ccc(NC(=O)c2ccnc(C(F)(F)F)c2)cc1-c1cc2c(cc1F)C[C@](F)(CO)[C@H]1COCCN21 [Example 480, N-(3-((4aR,5R)-5,8-difluoro-5-(hydroxymethyl)-1,2,4,4a,5,6-hexahydro-[1,4]oxazino[4,3-a]quinolin-9-yl)-4-methylphenyl)-2-(trifluoromethyl) isonicotinamide] | 9.70 |
| Cc1ccc(NC(=O)c2ccnc(C(C)(F)F)c2)cc1-c1cnc2c(c1)N1CCOC[C@@H]1[C@H](C(C)(C)O)C2 [Example 450, 2-(1,1-difluoroethyl)-N-(3-((4aS,5R)-5-(2-hydroxypropan-2-yl)-1,2,4,4a,5,6-hexahydro-[1,4]oxazino[4,3-a][1,5]naphthyridin-9-yl)-4-methylphenyl) isonicotinamide] | 9.70 |
| Cc1ncc(NC(=O)c2cccc(C(F)(F)F)c2)cc1-c1cnc2c(c1)N1CCOC[C@H]1[C@@H](C(C)(C)O)C2 [Example 452, N-(5-((4aR,5S)-5-(2-hydroxypropan-2-yl)-1,2,4,4a,5,6-hexahydro-[1,4]oxazino[4,3-a][1,5]naphthyridin-9-yl)-6-methylpyridin-3-yl)-3-(trifluoro-methyl)benzamide] | 9.30 |
| Cc1ccc(NC(=O)c2ccnc(C(C)(F)F)c2)cc1-c1ccc2c(c1)N1CCOC[C@H]1[C@@](C)(N)C2 (racemic) [Example 93, (rac)-(anti)-N-(3-(5-amino-5-methyl-1,2,4,4a,5,6-hexahydro-[1,4]oxazino[4,3-a]quinolin-9-yl)-4-methylphenyl)-2-(1,1-difluoroethyl)isonicotinamide] | 10.60 |
| Cc1ncc(NC(=O)c2cccc(C(F)(F)F)c2)cc1-c1cnc2c(c1)N1CCOC[C@@H]1[C@@H](C(C)(C)O)C2 [Example 455, N-(5-((4aS,5S)-5-(2-hydroxypropan-2-yl)-1,2,4,4a,5,6-hexahydro-[1,4]oxazino[4,3-a][l,5]naphthyridin-9-yl)-6-methylpyridin-3-yl)-3-(trifluoro-methyl)benzamide] | 8.89 |
